# Patent US12180226B2, “Spirotricycle RIPK1 inhibitors and methods of uses thereof” (Merck Sharp & Dohme LLC, priority 2021, dated 2024)
# Counter-ions that a name gives are not always drawn.
# Biological target: RIPK1 (recombinant GST-RIPK1 kinase domain, residues 1-327) (Homo sapiens (Human), UniProt Q13546)
# Test: RIPK1-ADP-Glo Enzymatic Assay
# Assay type: biochemical
# Conditions: ADP-Glo; 25 nM GST-RIPK1, 300 μM ATP; assay lower limit ~25 nM; read-out: RIPK1 V0 Ec50
# Outline: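 Luminescent ADP-Glo readout of ATP-to-ADP conversion. Conditions: 25 nM enzyme, 300 μM ATP, 3 μM dephospho-MBP, pH 7.3 HEPES buffer with 20 mM MgCl2; 30 min compound pre-incubation, 150 min reaction. EC50 via four-parameter sigmoidal regression; assay floor ~25 nM.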
# RIPK1 (recombinant GST-RIPK1 kinase domain, residues 1-327), sequence (Q13546 1-327): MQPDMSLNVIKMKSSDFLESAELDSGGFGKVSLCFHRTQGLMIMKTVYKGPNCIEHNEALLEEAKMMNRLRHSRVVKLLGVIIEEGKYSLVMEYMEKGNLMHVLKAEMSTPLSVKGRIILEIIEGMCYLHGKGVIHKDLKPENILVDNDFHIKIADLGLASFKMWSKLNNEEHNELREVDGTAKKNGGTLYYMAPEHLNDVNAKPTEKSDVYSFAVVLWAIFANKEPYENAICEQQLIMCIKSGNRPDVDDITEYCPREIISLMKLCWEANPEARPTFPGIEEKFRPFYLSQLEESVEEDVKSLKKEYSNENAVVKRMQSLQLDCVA
row,SMILES,EC50 [µM]
1,"O=C(c1cccc(F)c1F)N1CCC2(CC1)O[C@@H]1CC[C@@H](c3ccccc3)N1C2=O [Example 5.9, (5′S,7a′R)-1-(2,3-difluorobenzene-1-car-bonyl)-5′-phenyltetra-hydro-3′H-spiro[piperi-dine-4,2′-pyrrolo[2,1-b] [1,3]oxazol]-3′-one]",< 0.025
2,"O=C(c1ccc(F)cc1)N1CCC2(CC1)O[C@@H]1CC[C@@H](c3cc(F)cc(F)c3)N1C2=O [Example 6.70, (5′S,7a′R)-5′-(3,5-difluorophenyl)-1-(4-fluorobenzene-1-carbonyl)tetrahydro-3′H-spiro[piperidine-4,2′-pyrrolo[2,1-b] [1,3]oxazol]-3′-one]",< 0.025
3,"O=C1N2C(CCC2c2c(F)cccc2F)OC12CCN(c1ccnc3ccnn13)CC2 (centres unmarked) [Example 20.8, 5′-(2,6-difluorophenyl)-1-(pyrazolo[1,5-a]pyrimidin-7-yl)tetrahydro-3′H-spiro[piperidine-4,2′-pyrrolo[2,1-b][1,3]oxazol]-3′-one]",< 0.025
4,"CC1CC2(CCN1c1ccnc3ccnn13)O[C@@H]1CC[C@@H](c3ccccc3)N1C2=O (stereo partly drawn) [Example 4.231, (4R,5′S,7a′R)-2-methyl-5′-phenyl-1-(pyrazolo[1,5-a]pyrimidin-7-yl)tetrahydro-3′H-spiro[piperidine-4,2′-pyrrolo[2,1-b] [1,3]oxazol]-3′-one]",< 0.025
5,"O=C(c1ccccc1)N1CCC2(CC1)SC1CC[C@@H](c3cc(F)cc(F)c3)N1C2=O (stereo partly drawn) [Example 1.22, (5′S)-1-benzoyl-5′-(3,5-difluorophenyl)tetrahydro-3′H-spiro[piperidine-4,2′-pyrrolo[2,1-b]thiazol]-3′-one]",< 0.025
6,O=C(c1nc(C2CC2)no1)N1CCC2(CC1)O[C@@H]1CC[C@@H](c3cc(F)cc(F)c3)N1C2=O [Example 6.35],0.0897
7,"Cc1ncc([C@@H]2CC[C@H]3OC4(CCN(C(=O)c5ccccc5)CC4F)C(=O)N32)cc1F (stereo partly drawn) [Example 2.10, (5′S,7a′R)-1-(benzenecarbonyl)-3-fluoro-5′-(5-fluoro-6-methylpyridin-3-yl)tetrahydro-3′H-spiro[piperidine-4,2′-pyrrolo[2,1-b][1,3]oxazol]-3′-one]",0.136
8,"NC(=O)c1ccc(N2CCC3(CC2)O[C@@H]2CC[C@@H](c4ccccc4)N2C3=O)nc1Cl [Example 4.201, 2-chloro-6-[(5′S,7a′R)-3′-oxo-5′-phenyltetrahydro-1H,3′H-spiro[piperidine-4,2′-pyrrolo[2,1-b] [1,3]oxazol]-1-yl]pyridine-3-carboxamide]",< 0.025
9,"O=C(c1ccoc1)N1CCC2(CC1)O[C@@H]1CC[C@@H](c3cc(F)cc(F)c3)N1C2=O [Example 5.36, (5′S,7a′R)-5′-(3,5-difluoro-phenyl)-1-(furan-3-carbon-yl)tetrahydro-3′H-spiro [piperidine-4,2′-pyrrolo-[2,1-b]oxazol]-3′-one]",< 0.025
10,"O=C1N2[C@@H](CC[C@H]2c2ccccc2)OC12CCN(c1cccc3ncnn13)CC2 [Example 13.1, (5′S,7a′R)-1-([1,2,4]Triazolo[1,5-a]pyridin-5-yl)-5′-phenyltetrahydro-3′H-spiro[piperidine-4,2′-pyrrolo[2,1-b]oxazol]-3′-one, TFA]",0.0268
11,"Cc1ccccc1S(=O)(=O)N1CCC2(CC1)O[C@@H]1CC[C@@H](c3cc(F)cc(F)c3)N1C2=O [Example 8.2, (5′S,7a′R)-5′-(3,5-difluorophenyl)-1-[(2-methylphenyl)sulfonyl] tetrahydro-3′H-spiro[piperidine-4,2′-pyrrolo[2,1-b][1,3]oxazol]-3′-one]",0.685
12,"Cc1nc(N2CCC3(CC2)O[C@@H]2CC[C@@H](c4ccccc4)N2C3=O)ccc1F [Example 11.33, (5′S,7a′R)-1-(5-fluoro-6-methylpyridin-2-yl)-5′-phenyltetrahydro-3′H-spiro[piperidine-4,2′-pyrrolo[2,1-b][1,3]oxazol]-3′-one]",< 0.025
13,"O=C(c1cccc(Cl)c1)N1CCC2(CC1)O[C@@H]1CC[C@@H](c3cc(F)cc(F)c3)N1C2=O [Example 6.9, (5′S,7a′R)-1-(3-chloro-benzene-1-carbonyl)-5′-(3,5-difluoro-phenyl)tetrahydro-3′H-spiro[piperidine-4,2′-pyrrolo[2,1-b] [1,3]oxazol]-3′-one]",< 0.025

# Now from value to compound:
row,EC50 [µM],SMILES
1,0.103,"O=C1N2[C@@H](CC[C@H]2c2ccccc2F)OC12CN(Cc1ccccc1)C2 [Example 22.7, (5′S,7a′R)-1-benzyl-5′-(2-fluorophenyl)tetrahydro-3′H-spiro[azetidine-3,2′-pyrrolo[2,1-b][1,3]oxazol]-3′-one]"
2,0.0385,"COC(=O)c1ccc(N2CCC3(CC2)O[C@@H]2CC[C@@H](c4ccccc4)N2C3=O)nc1 [Example 4.202, methyl 6-[(5′S,7a′R)-3′-oxo-5′-phenyltetrahydro-1H,3′H-spiro[piperidine-4,2′-pyrrolo[2,1-b] [1,3]oxazol]-1-yl]pyridine-3-carboxylate]"
3,0.0913,"Cn1nc(N2CCC3(CC2)O[C@@H]2CC[C@@H](c4ccccc4)N2C3=O)ccc1=O [Example 11.7, (5′S,7a′R)-1-(1-methyl-6-oxo-1,6-dihydropyridazin-3-yl)-5′-phenyltetrahydro-3′H-spiro[piperidine-4,2′-pyrrolo[2,1-b][1,3]oxazol]-3′-one]"
4,< 0.025,"O=C1N2[C@@H](CC[C@H]2c2ccccc2)OC12CCN(c1ncc(-c3ncco3)c(C(F)(F)F)n1)CC2 [Example 21.2, (5′S,7a′R)-1-[5-(1,3-oxazol-2-yl)-4-(trifluoromethyl)pyrimidin-2-yl]-5′-phenyltetrahydro-3′H-spiro[piperidine-4,2′-pyrrolo[2,1-b][1,3]oxazol]-3′-one]"
5,< 0.025,"O=C1N2[C@@H](CC[C@H]2c2ccccc2)OC12CCN(c1ccc(Cl)c3ccnn13)CC2 [Example 4.153, (5′S,7a′R)-1-(4-chloropyrazolo[1,5-a]pyridin-7-yl)-5′-phenyltetrahydro-3′H-spiro[piperidine-4,2′-pyrrolo[2,1-b] [1,3]oxazol]-3′-one]"
6,< 0.025,"O=C(c1cc(F)ccc1F)N1CCC2(O[C@@H]3CC[C@@H](c4ccccc4)N3C2=O)C(F)C1 (stereo partly drawn) [Example 6.111, (5′S,7a′R)-1-(2,5-difluorobenzene-1-carbonyl)-3-fluoro-5′-phenyltetrahydro-3′H-spiro[piperidine-4,2′-pyrrolo[2,1-b][1,3]-oxazol]-3′-one]"
7,< 0.025,"O=C1N2[C@H](OC13CCN(c1ccnc4c(F)cnn14)CC3)[C@@H](O)C[C@H]2c1ccccc1 [Example 4.271, (5′S,7′S,7a′R)-1-(3-fluoropyrazolo[1,5-a]pyrimidin-7-yl)-7′-hydroxy-5′-phenyltetrahydro-3′H-spiro[piperidine-4,2′-pyrrolo[2,1-b] [1,3]oxazol]-3′-one]"
8,0.032,"O=C1N2[C@@H](CC[C@H]2c2cc(F)cc(F)c2)OC12CCN(c1ccc(OCC(F)F)c3ccnn13)CC2 [Example 19.4, (5′S,7a′R)-1-(4-(2,2-difluoroethoxy)pyrazolo [1,5-a]pyridin-7-yl)-5′-(3,5-difluorophenyl)tetrahydro-3′H-spiro[piperidine-4,2′-pyrrolo[2,1-b]oxazol]-3′-one, TFA salt]"
9,0.405,"O=C(c1cnc(C(F)F)cn1)N1CCC2(CC1)O[C@@H]1CC[C@@H](c3cc(F)cc(F)c3)N1C2=O [Example 6.84, (5′S,7a′R)-1-[5-(difluoromethyl)pyr-azine-2-carbonyl]-5′-(3,5-difluorophenyl)-tetrahydro-3′H-spiro [piperidine-4,2′-pyrrolo[2,1-b][1,3]-oxazol]-3′-one]"
10,< 0.025,"O=C1N2[C@@H](CC[C@H]2c2ccccc2)OC12CCN(c1ncnc3ccnn13)CC2 [Example 4.93, (5′S,7a′R)-5′-phenyl-1-(pyrazolo[1,5-a] [1,3,5]triazin-4-yl)tetrahydro-3′H-spiro[piperidine-4,2′-pyrrolo[2,1-b]oxazol]-3′-one, TFA salt]"
11,< 0.025,"O=C1N2[C@H](CC13CCN(c1ccnc4c(F)cnn14)CC3)OC[C@H]2c1ccccc1 [Example 4.120, (3′R,7a′S)-1-(3-fluoropyrazolo[1,5-a]pyrimidin-7-yl)-3′-phenyltetrahydro-5′H-spiro[piperidine-4,6′-pyrrolo[2,1-b] [1,3]oxazol]-5′-one]"
12,0.154,"N#Cc1cc(N2CCC3(O[C@@H]4CC[C@@H](c5ccccc5)N4C3=O)C(F)C2)ncn1 (single isomer, unassigned) [Example 4.94, 6-((3[R or S],4[S or R], 5′S,7a′R)-3-fluoro-3′-oxo-5′-phenyltetrahydro-3′H-spiro[piperidine-4,2′-pyrrolo[2,1-b]oxazol]-1-yl)pyrimidine-4-carbonitrile]"
13,0.0622,"O=C(c1cccc2c1CCC2)N1CCC2(CC1)O[C@@H]1CC[C@@H](c3cc(F)cc(F)c3)N1C2=O [Example 5.29, (5′S,7a′R)-5′-(3,5-difluoro-phenyl)-1-(2,3-dihydro-1H-indene-4-carbonyl)-tetrahydro-3′H-spiro [piperidine-4,2′-pyrrolo-[2,1-b]oxazol]-3′-one]"
14,0.345,"O=C1N2[C@@H](CC[C@H]2c2ccccc2F)OC12CN(S(=O)(=O)c1ccc(F)cc1)C2 [Example 8.7, (5′S,7a′R)-5′-(2-fluorophenyl)-1-((4-fluorophenyl)sulfonyl) tetrahydro-3′H-spiro[azetidine-3,2′-pyrrolo[2,1-b]oxazol]-3′-one]"
15,< 0.025,"CC1CN(c2ccnc3ccnn23)CCC12O[C@@H]1CC[C@@H](c3ccccc3)N1C2=O (stereo partly drawn) [Example 4.235, (4R,5′S,7a′R)-3-methyl-5′-phenyl-1-(pyrazolo[1,5-a]pyrimidin-7-yl)tetrahydro-3′H-spiro[piperidine-4,2′-pyrrolo[2,1-b] [1,3]oxazol]-3′-one]"
16,< 0.025,"O=C1N2[C@@H](CC[C@H]2c2ccc(F)cc2)OC12CCN(c1ccnc3c(F)cnn13)CC2 [Example 4.124, (5′S,7a′R)-5′-(4-fluorophenyl)-1-(3-fluoropyrazolo[1,5-a]pyrimidin-7-yl)tetrahydro-3′H-spiro[piperidine-4,2′-pyrrolo[2,1-b] [1,3]oxazol]-3′-one]"
